Results published in patent US5219839A, “Adenosine derivatives, their methods of preparation and pharmaceutical compositions in which they are present” (Laboratories UPSA, priority 1992, dated 1993).

Key:
A1 receptors = target: T1, A1 receptors (Rattus norvegicus, UniProt P25099); test: Binding to adenosine A1 receptors: competitive displacement of [^3 H] PIA, rat brain membranes; settings: [^3 H] PIA 2.5 nM, n=3; for inhibition at 10 µM: 10^-5 M, read-out: % displacement of the labeled ligand, A1, 1E-5M; for inhibition at 0.1 µM: read-out: % displacement of the labeled ligand, A1, 1E-7M
T1 construct: the brain is quickly removed and washed in cold isotonic solution; from tissue; host or cells: rat brain hemispheres (membrane homogenate)
T1 sequence (P25099 1-326): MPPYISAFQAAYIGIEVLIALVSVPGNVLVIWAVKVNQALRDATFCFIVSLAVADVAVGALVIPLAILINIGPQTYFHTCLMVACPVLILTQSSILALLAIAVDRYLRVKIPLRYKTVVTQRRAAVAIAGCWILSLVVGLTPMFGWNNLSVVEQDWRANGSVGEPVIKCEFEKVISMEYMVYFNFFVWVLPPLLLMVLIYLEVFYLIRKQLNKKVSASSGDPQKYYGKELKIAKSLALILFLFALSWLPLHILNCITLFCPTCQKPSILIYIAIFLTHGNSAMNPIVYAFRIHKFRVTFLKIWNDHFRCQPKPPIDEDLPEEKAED
Protocol: (§1) The affinity of the products of the Examples for the rat central A1 and A2 adenosinergic receptors is determined by the competitive technique using a radioactive ligand specifically bound either to the A1 receptors ([^3 H] PIA) or to the A2 receptors ([^3 H] NECA).
After the animal has been sacrificed by decapitation, the brain is quickly removed and washed in cold isotonic solution. The two hemispheres are separated and weighed and each of them is introduced into a polyallomer tube containing 25 volumes of cold homogenization buffer. Homogenization is effected using an Ultra-Turrax for 30 seconds (3 times 10 seconds with 10-second intervals, 70% of the maximum speed). The ground material obtained is centrifuged at 1000 g (≈3000 rpm) for 10 minutes at 4° C.
The supernatant is centrifuged again at 48,000 g (≈20,000 rpm) for 20 minutes at 4° C.
When this step is complete, the residue is taken up with 4 volumes of homogenization buffer, resuspended using a Vortex and homogenized with the Ultra-Turrax. Adenosine deaminase is then added at a rate of 1 U/ml, i.e. 1 μl/ml of homogenate, using a 10 μl Hamilton syringe.
After this treatment, the homogenate is shaken for 30 minutes at room temperature and then centrifuged at […] (≈20,000 rpm) for 30 minutes at 4° C.
The residue obtained is resuspended in 10 volumes of homogenization buffer and passed through the Ultra-Turrax for 20 seconds (2 times 10 seconds with a 10-second interval, 70% of the maximum speed).
The homogenate prepared in this way is used for the competitive tests. It is kept at 4° C. if the studies take place the same day, or stored at -20° C. in the form of 10 ml aliquots.
After the homogenate has been thawed at room temperature, it is passed through a Potter homogenizer (6 manual to-and-fro movements, speed 6), diluted to 2/5 in incubation buffer and placed in a water bath thermostated at 4° C., with shaking, until the end of the experiment.
(§2) 50 μl of [^3 H] PIA at 100 nM, i.e. 2.5 nM in the final reaction medium allowing for the 1/40 dilution, and 50 μl of the product of the Example at the concentrations considered (10^-5 M and 10^-7 M) are introduced into the reaction tubes. The reaction is initiated by the addition of 1 ml of homogenate and 900 μl of incubation buffer. The procedure is identical for all the beta-blockers studied.
(§3) The tubes are shaken and incubated in a water bath at 20° C. for 30 minutes. When the incubation is complete, the contents of the tubes are filtered on Whatman GF/B paper. Each tube is washed twice with 2 ml of rinsing buffer and then the filters themselves are rinsed with 3 ml of this same buffer.
The filters are then transferred to counting flasks and 10 ml of liquid scintillator (Ready Solv HP/b, Beckman) are added.
After they have been shaken, the flasks are stored in a refrigerator overnight and the radioactivity is then determined in a liquid scintillation counter.
(§4) 3 tests are performed for each concentration studied. The non-specific binding of the [^3 H] PIA is assessed by measuring the amount of radioactivity retained on the filter in the presence of 10^-5 M phenylisopropyladenosine (PIA). The value of the non-specific binding is systematically subtracted from that of the tests.
(§5) The results are expressed for each product in the form of the percentage displacement (n=3) of the labeled radioligand at concentrations of 10^-5 M and 10^-7 M.

[1] = system: twisting and stretching movements in mice; test: Phenylbenzoquinone test (analgesic activity); type: in vivo; settings: Mus musculus, po, one hour before phenylbenzoquinone i.p., 5 minutes observation, read-out: Phenylbenzoquinone test 50% inhibitory dose
Protocol: The intraperitoneal injection of phenylbenzoquinone causes twisting and stretching movements in mice. Analgesics prevent or reduce this syndrome, which can be considered as the exteriorization of diffuse abdominal pain.
A 0.02% solution of phenylbenzoquinone in water is administered in a volume of 1 ml/100 g.
The products of the Examples are administered orally one hour before the injection of phenylbenzoquinone.
The stretching and twisting movements are counted for each mouse over an observation period of 5 minutes.

A2 receptors = target: T2, A2 receptors (Rattus norvegicus, UniProt P30543); test: Binding to adenosine A2 receptors: competitive displacement of [^3 H] NECA, rat striatum membranes; settings: [^3 H] NECA 4 nM, n=3; for inhibition at 10 µM: 10^-5 M, read-out: % displacement of the labeled ligand, A2, 1E-5M; for inhibition at 0.1 µM: read-out: % displacement of the labeled ligand, A2, 1E-7M
T2 construct: The two hemispheres are separated and the striatum is removed from each of them (Bruns et al., 1986); from tissue; host or cells: rat striatum (membrane homogenate)
T2 sequence (P30543 whole entry): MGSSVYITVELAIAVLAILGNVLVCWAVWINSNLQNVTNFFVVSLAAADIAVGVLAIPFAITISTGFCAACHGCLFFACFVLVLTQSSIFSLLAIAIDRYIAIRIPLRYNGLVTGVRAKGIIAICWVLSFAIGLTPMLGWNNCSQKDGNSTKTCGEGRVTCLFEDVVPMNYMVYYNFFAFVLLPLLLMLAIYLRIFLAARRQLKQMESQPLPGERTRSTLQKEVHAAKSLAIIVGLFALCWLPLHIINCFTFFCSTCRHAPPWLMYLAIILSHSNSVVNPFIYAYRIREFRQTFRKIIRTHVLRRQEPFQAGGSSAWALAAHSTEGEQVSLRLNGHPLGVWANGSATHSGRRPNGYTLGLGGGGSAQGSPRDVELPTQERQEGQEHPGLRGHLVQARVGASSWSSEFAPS
Protocol: as §1
After decapitation of the animal, the brain is quickly removed and washed in cold isotonic solution. The two hemispheres are separated and the striatum is removed from each of them (Bruns et al., 1986), weighed and introduced into a polyallomer tube containing 10 volumes of cold homogenization buffer. The tissue is homogenized with an Ultra-Turrax for 30 seconds (3 times 10 seconds with 10-second intervals, 70% of the maximum speed). The ground material is centrifuged at 50,000 g (≈20,500 rpm) for 10 minutes at 4° C.
The residue obtained is resuspended in 10 volumes of homogenization buffer using a Vortex and homogenized with the Ultra-Turrax (5 to 10 seconds, 70% of the maximum speed).
Adenosine deaminase is then added at a rate of 1 U/ml, i.e. 1 μl/ml of homogenate, using a 10 μl Hamilton syringe. The homogenate treated in this way is shaken at room temperature for 30 minutes.
When the incubation is complete, the homogenate is centrifuged at 50,000 g (≈20,500 rpm) for 10 minutes at 4° C.
The residue is taken up with 5 volumes of cold homogenization buffer and passed through the Ultra-Turrax (2 times 10 seconds with a 10-second interval, 70% of the maximum speed) and the homogenate prepared in this way is finally frozen at -70° C.
After the homogenate has been thawed at room temperature, 15 volumes of incubation buffer are added. The homogenate is shaken on a Vortex, passed through a Potter homogenizer (6 to-and-fro movements, speed 6), diluted to 1/10 in incubation buffer and finally placed in a water bath thermostated at 4° C., with shaking, until the end of the experiment.
as §2, with “NECA” for “PIA”, “160” for “100”, “4” for “2.5”, “similar” for “identical”, “compounds” for “beta-blockers”
as §3, with “25°” for “20°”, “60” for “30”, “buffer before being transferred to counting flasks.” for “buffer.”
10 ml of liquid scintillator (Ready Solv HP/b, Beckman) are added to all the flasks. These are shaken and stored in a refrigerator overnight. The radioactivity is determined in a liquid scintillation counter.
as §4, with “NECA” for “PIA”, “determined” for “assessed”, “5 μM N-ethylcarboxamidoadenosine (NECA).” for “10^-5 M phenylisopropyladenosine (PIA).”
as §5

| Compound | inhibition at 10 µM (A1 receptors) [%] | inhibition at 0.1 µM (A1 receptors; 10^-7 M) [%] | ED50 [1] [mg/kg] | inhibition at 10 µM (A2 receptors) [%] | inhibition at 0.1 µM (A2 receptors; 10^-7 M) [%] | % displacement of the labeled ligand, A1, 1E-7M (A1 receptors; 10^-7 M, 0.1 µM) [%] | % displacement of the labeled ligand, A2, 1E-7M (A2 receptors; 10^-7 M, 0.1 µM) [%] |
| --- | --- | --- | --- | --- | --- | --- | --- |
| O=C(NC1CC1)[C@H]1O[C@@H](n2cnc3c(NCC4CC4(c4ccc(F)cc4)c4ccc(F)cc4)ncnc32)[C@H](O)[C@@H]1O (mixture of isomers) [Example 40, β-D-Ribofuranuronamido-N-cyclopropyl-1-deoxy-1-[6-[(±)-[[2-di(4-fluorophenyl)cyclopropyl]methyl]amino]-9H-purin-9-yl]] | 94 | 15 | 0.5 | 89 | 53 | – | – |
| CCNC(=O)[C@H]1O[C@@H](n2cnc3c(NCC4CC4(c4ccccc4)c4ccccc4)ncnc32)[C@H](O)[C@@H]1O (mixture of isomers) [Example 41, β-D-Ribofuranuronamido-N-ethyl-1-deoxy-1-[6-[(±)-[[2,2-diphenylcyclopropyl]methyl]amino]-9H-purin-9-yl]] | 98 | 31 | 0.5 | 100 | 68 | – | – |
| O=C(NC1CC1)[C@H]1O[C@@H](n2cnc3c(NCC4CC4(c4ccccc4)c4ccccc4)ncnc32)[C@H](O)[C@@H]1O (mixture of isomers) [Example 42, β-D-Ribofuranuronamido-N-cyclopropyl-1-deoxy-1-[6-[(±)-[[2,2-diphenylcyclopropyl]methyl]amino]-9H-purin-9-yl]] | 96 | 20 | 0.9 | 94 | 59 | – | – |
| O=C(NC1CC1)[C@H]1O[C@@H](n2cnc3c(NCC4CC45c4ccccc4CCc4ccccc45)ncnc32)[C@H](O)[C@@H]1O (mixture of isomers) [Example 45, β-D-Ribofuranuronamido-N-cyclopropyl-1-deoxy-1-[6-[(±)-2-[spiro[10',11'-dihydrocyclopropane-1,5'-[5H]-dibenzo[a,d]cycloheptene]methyl]amino]-9H-purin-9-yl]] | 93 | 20 | 1.6 | 79 | 12 | – | – |
| O=C(NC1CC1)[C@H]1O[C@@H](n2cnc3c(NCC4CC45c4ccccc4-c4ccccc45)ncnc32)[C@H](O)[C@@H]1O (mixture of isomers) [Example 46, β-D-Ribofuranuronamido-N-cyclopropyl-1-deoxy-1-[6-[(±)-2-[spiro[cyclopropane-1,9'-[9H]-fluorene]methyl]amino]-9H-purin-9-yl]] | – | – | 0.6 | 92 | 38 | – | – |
| CC(C)NC(=O)[C@H]1O[C@@H](n2cnc3c(NCC4CC4(c4ccccc4)c4ccccc4)ncnc32)[C@H](O)[C@@H]1O (mixture of isomers) [Example 47, β-D-Ribofuranuronamido-N-isopropyl-1-deoxy-1-[6-[(±)-[[2,2-diphenylcyclopropyl]methyl]amino]-9H-purin-9-yl]] | 93 | 7 | 2 | 84 | 17 | – | – |
| OC[C@H]1O[C@@H](n2cnc3c(NCC4CC4(c4ccccc4)c4ccccc4)ncnc32)[C@H](O)[C@@H]1O (mixture of isomers) [Example 51, N^6-(±)-[1,1-Diphenylcyclopropan-2-yl]methyladenosine] | 93 | 18 | 31 | 95 | 56 | – | – |
| OC[C@H]1O[C@@H](n2cnc3c(NCC4CC4(c4ccccc4)c4cc(Cl)cc(Cl)c4)ncnc32)[C@H](O)[C@@H]1O (mixture of isomers) [Example 52, N^6-(±)-[1-(3,5-Dichlorophenyl)-1-phenylcyclopropan-2-yl]methyladenosine] | 92 | 18 | 41 | 92 | 28 | – | – |
| O=C(NC1CC1)[C@H]1O[C@@H](n2cnc3c(NCC4CC4(c4ccccc4)c4ccccc4)ncnc32)[C@H](O)[C@@H]1O (single isomer, unassigned) [Example 43, β-D-Ribofuranuronamido-N-cyclopropyl-1-deoxy-1-[6-[(+)-[[2,2-diphenylcyclopropyl]methyl]amino]-9H-purin-9-yl]] | 97 | – | 1.2 | 96 | – | 44 | 73 |
